Test results from patent US8592460B2, “Amino-pyridine derivatives as S1P1 /EDG1 receptor agonists” (Actelion Pharmaceuticals Ltd., priority 2007, dated 2013).

What was measured:
[1] = target: recombinant human S1P1 receptor (Homo sapiens, UniProt P21453); experiment: GTPγS assay to determine EC50 values; type: biochemical; details: agonistic activity, 35S-GTPγS binding
Protocol: GTPγS binding assays are performed in 96 well microtiter plates (Nunc, 442587) in a final volume of 200 μl, using membrane preparations of CHO cells expressing recombinant human S1P1 receptor. Assay conditions are 20 mM Hepes (Fluka, 54461), 100 mM NaCl (Fluka, 71378), 5 mM MgCl2(Fluka, 63064), 0.1% BSA (Calbiochem, 126609), 1 μM GDP (Sigma, G-7127), 2.5% DMSO (Fluka, 41644), […] ^35S-GTPγS (Amersham Biosciences, SJ1320). The pH is 7.4. Test compounds are dissolved and diluted in 100% DMSO and pre-incubated at room temperature for 30 min in 150 μl of the above assay buffer, in the absence of ^35S-GTPγS. After addition of 50 μl of ^35S-GTPγS, the assay is incubated for 1 h at rt. The assay is terminated by transfer of the reaction mixture to a Multiscreen plate (Millipore, MAHFC1H60) using a cell harvester from Packard Biosciences, and the plates are washed with ice-cold 10 mM Na2HPO4/NaH2PO4 (70%/30%), dried, sealed at the bottom and, after addition of 25 μl MicroScint20 (Packard Biosciences, order#6013621), sealed on the top. Membrane-bound ^35S-GTPγS is measured with a TopCount from Packard Biosciences.
EC50 is the concentration of agonist inducing 50% of the maximal specific ^35S-GTPγS binding. Specific binding is determined by subtracting non-specific binding from maximal binding. Maximal binding is the amount of cpm bound to the Multiscreen plate in the presence of 10 μM of S1P. Non-specific binding is the amount of binding in the absence of an agonist in the assay.

circulating lymphocytes = experiment: Assessment of in vivo efficacy: circulating lymphocytes after oral administration; design: species or system rat; details: 6 h after oral administration of 10 mg/kg to normotensive male Wistar rats, compared to vehicle-treated group; mean ± SEM
Protocol: The efficacy of the compounds of formula (I) is assessed by measuring the circulating lymphocytes after oral administration of 3 to 30 mg/kg of a compound of formula (I) to normotensive male Wistar rats. The animals are housed in climate-controlled conditions with a 12 h-light/dark cycle, and have free access to normal rat chow and drinking water. Blood is collected before and 3, 6 and 24 h after drug administration. Full blood is subjected to hematology using Advia Hematology system (Bayer Diagnostics, Zurich, Switzerland).
All data are presented as mean±SEM. Statistical analyses are performed by analysis of variance (ANOVA) using Statistica (StatSoft) and the Student-Newman-Keuls procedure for multiple comparisons. The null hypothesis is rejected when p<0.05.
Lymphocyte counts 6 h after oral administration have been measured for 39 of the 258 exemplified compounds and are in the range of −82% to −48% with an average of −65%.

[2] = membrane preparations of CHO cells expressing recombinant human S1P1 receptor
[3] = membranes of CHO cells expressing recombinant human S1P1 receptor

Sequence of recombinant human S1P1 receptor (P21453 whole entry): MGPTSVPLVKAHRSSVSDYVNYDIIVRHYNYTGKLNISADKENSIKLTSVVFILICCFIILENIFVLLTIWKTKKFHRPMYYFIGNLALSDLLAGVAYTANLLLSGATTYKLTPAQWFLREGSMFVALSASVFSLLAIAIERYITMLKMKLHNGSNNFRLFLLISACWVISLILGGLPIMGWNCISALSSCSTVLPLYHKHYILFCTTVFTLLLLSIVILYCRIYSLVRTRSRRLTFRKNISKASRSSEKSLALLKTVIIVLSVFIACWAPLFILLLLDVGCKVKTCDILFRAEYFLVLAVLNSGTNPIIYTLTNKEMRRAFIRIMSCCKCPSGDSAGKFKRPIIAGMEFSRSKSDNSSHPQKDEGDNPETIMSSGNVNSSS

SMILES | EC50 [1, 2] [nM] | further results
CCc1cc(-c2noc(-c3cc(C)nc(N(CC)CC)c3)n2)cc(C)c1OCC(O)CO (racemic) [Example 15, rac-3-{4-[5-(2-Diethylamino-6-methyl-pyridin-4-yl)-[1,2,4]oxadiazol-3-yl]-2-ethyl-6-methyl-phenoxy}-propane-1,2-diol] | 1.2 | 
CCc1cc(-c2nc(-c3cc(C)c(OCC(O)CNC(=O)CO)c(CC)c3)no2)cc(N(C)C)n1 (racemic) [Example 32, rac-N-(3-{4-[5-(2-Dimethylamino-6-ethyl-pyridin-4-yl)-[1,2,4]oxadiazol-3-yl]-2-ethyl-6-methyl-phenoxy}-2-hydroxy-propyl)-2-hydroxy-acetamide] | 1.2 | 
CCc1cc(-c2noc(-c3cc(C)nc(N(C)CC(C)C)c3)n2)cc(C)c1OCC(O)CO (racemic) [Example 34, rac-3-(2-Ethyl-4-{5-[2-(isobutyl-methyl-amino)-6-methyl-pyridin-4-yl]-[1,2,4]oxadiazol-3-yl}-6-methyl-phenoxy)-propane-1,2-diol] |  | EC50 [1, 3]: > 10000 nM
CCc1cc(-c2noc(-c3cc(C)nc(N(CC)CC)c3)n2)cc(C)c1OCCN1CCC(C(=O)O)C1 (racemic) [Example 66, rac-1-(2-{4-[5-(2-Diethylamino-6-methyl-pyridin-4-yl)-[1,2,4]oxadiazol-3-yl]-2-ethyl-6-methyl-phenoxy}-ethyl)-pyrrolidine-3-carboxylic acid] | 6.2 | 
CCN(CC)c1cc(-c2nc(-c3cc(C)c(OC[C@@H](O)CO)c(C)c3)no2)cc(C)n1 [Example 11, (S)-3-{4-[5-(2-diethylamino-6-methyl-pyridin-4-yl)-[1,2,4]oxadiazol-3-yl]-2,6-dimethyl-phenoxy}-propane-1,2-diol] |  | Lymphocyte counts (circulating lymphocytes): −70 ± 2%
Cc1cc(-c2nc(-c3cc(C)c(O)c(C)c3)no2)cc(N(C)C(C)C)n1 [Example 21, 4-{5-[2-(Isopropyl-methyl-amino)-6-methyl-pyridin-4-yl]-[1,2,4]oxadiazol-3-yl}-2,6-dimethyl-phenol] | 3.6 | 
Cc1cc(-c2nc(-c3cc(C)c(OC[C@@H](O)CO)c(C)c3)no2)cc(N(C)C(C)C)n1 [Example 22, (S)-3-(4-{5-[2-(Isopropyl-methyl-amino)-6-methyl-pyridin-4-yl]-[1,2,4]oxadiazol-3-yl}-2,6-dimethyl-phenoxy)-propane-1,2-diol] | 0.7 | 
CCc1cc(-c2noc(-c3cc(C)nc(N(C)C(C)C)c3)n2)cc(C)c1OC[C@@H](O)CO [Example 24, (S)-3-(2-Ethyl-4-{5-[2-(isopropyl-methyl-amino)-6-methyl-pyridin-4-yl]-[1,2,4]oxa-diazol-3-yl}-6-methyl-phenoxy)-propane-1,2-diol] |  | Lymphocyte counts (circulating lymphocytes): −72 ± 1%
CCc1cc(-c2noc(-c3cc(C)nc(N(C)C(C)C)c3)n2)cc(C)c1CCC(=O)NCCC(=O)O [Example 26, 3-[3-(2-Ethyl-4-{5-[2-(isopropyl-methyl-amino)-6-methyl-pyridin-4-yl]-[1,2,4]oxadiazol-3-yl}-6-methyl-phenyl)-propionylamino]-propionic acid] | 2.6 | 
CCc1cc(-c2nc(-c3cc(C)nc(N(CC)CC)c3)no2)cc(C)c1OC[C@H](O)CNC(=O)CO [Example 79, N—((R)-3-{4-[3-(2-diethylamino-6-methyl-pyridin-4-yl)-[1,2,4]oxadiazol-5-yl]-2-ethyl-6-methyl-phenoxy}-2-hydroxy-propyl)-2-hydroxy-acetamide] | 1.4 | 
CCc1cc(-c2nnc(-c3cc(C)nc(N(CC)CC)c3)o2)cc(C)c1OC[C@@H](O)CNC(=O)CO [Example 87, N—((S)-3-{4-[5-(2-diethylamino-6-methyl-pyridin-4-yl)-[1,3,4]oxadiazol-2-yl]-2-ethyl-6-methyl-phenoxy}-2-hydroxy-propyl)-2-hydroxy-acetamide] | 3.4 | 
CCc1cc(-c2nnc(-c3cc(C)nc(N(CC)CC)c3)s2)cc(C)c1OC[C@@H](O)CO [Example 90] |  | EC50 [1, 3]: > 10000 nM
CCN(CC)c1cc(-c2nc(-c3cc(C)c(OC[C@@H](O)CNC(=O)CO)c(Cl)c3)no2)cc(C)n1 [Example 109, N—((S)-3-{2-chloro-4-[5-(2-diethylamino-6-methyl-pyridin-4-yl)-[1,2,4]oxadiazol-3-yl]-6-methyl-phenoxy}-2-hydroxy-propyl)-2-hydroxy-acetamide] | 0.5 | 
CCN(CC)c1cc(-c2nc(-c3cc(Cl)c(OC[C@H](O)CNC(=O)CO)c(OC)c3)no2)cc(C)n1 [Example 116, N—((R)-3-{2-chloro-4-[5-(2-diethylamino-6-methyl-pyridin-4-yl)-[1,2,4]oxadiazol-3-yl]-6-methoxy-phenoxy}-2-hydroxy-propyl)-2-hydroxy-acetamide] | 2 | 
CCc1cc(-c2noc(-c3cc(C)nc(N(C)C(C)C)c3)n2)cc(C)c1OC[C@@H](O)CNC(=O)CO [Example 130, N—[(S)-3-(2-ethyl-4-{5-[2-(isopropyl-methyl-amino)-6-methyl-pyridin-4-yl]-[1,2,4]oxadiazol-3-yl}-6-methyl-phenoxy)-2-hydroxy-propyl]-2-hydroxy-acetamide] | 0.1 | 
CCCc1cc(-c2noc(-c3cc(C)nc(N(C)C(C)C)c3)n2)cc(C)c1OC[C@@H](O)CNC(=O)CO [Example 139, 2-hydroxy-N—[(S)-2-hydroxy-3-(4-{5-[2-(isopropyl-methyl-amino)-6-methyl-pyridin-4-yl]-[1,2,4]oxadiazol-3-yl}-2-methyl-6-propyl-phenoxy)-propyl]-acetamide] | 2 | 
Cc1cc(-c2nc(-c3cc(C)c(OC[C@@H](O)CNC(=O)CO)c(Cl)c3)no2)cc(N(C)C(C)C)n1 [Example 146, N—[(S)-3-(2-chloro-4-{5-[2-(isopropyl-methyl-amino)-6-methyl-pyridin-4-yl]-[1,2,4]oxadiazol-3-yl}-6-methyl-phenoxy)-2-hydroxy-propyl]-2-hydroxy-acetamide] | 0.8 | 
COc1cc(OC[C@H](O)CNC(=O)CO)ccc1-c1noc(-c2cc(C)nc(N(C)C(C)C)c2)n1 [Example 159, 2-hydroxy-N—[(R)-2-hydroxy-3-(4-{5-[2-(isopropyl-methyl-amino)-6-methyl-pyridin-4-yl]-[1,2,4]oxadiazol-3-yl}-3-methoxy-phenoxy)-propyl]-acetamide] | 5.1 | 
CCc1cc(-c2nnc(-c3cc(C)nc(N(C)C(C)C)c3)s2)cc(C)c1OC[C@H](O)CO [Example 176] |  | EC50 [1, 3]: > 10000 nM
CCc1cc(-c2nnc(-c3cc(C)nc(N(C)C(C)C)c3)s2)cc(C)c1OC[C@H](O)CN [Example 178] |  | EC50 [1, 3]: > 10000 nM
CCc1cc(-c2nnc(-c3cc(C)nc(N(C)C(C)C)c3)s2)cc(C)c1OC[C@@H](O)CN [Example 179] |  | EC50 [1, 3]: > 10000 nM
CCc1cc(-c2nc(-c3cc(C)c(OC[C@@H](O)CNC(=O)CO)c(CC)c3)no2)cc(N(C)C)n1 [Example 192, N—((S)-3-{4-[5-(2-dimethylamino-6-ethyl-pyridin-4-yl)-[1,2,4]oxadiazol-3-yl]-2-ethyl-6-methyl-phenoxy}-2-hydroxy-propyl)-2-hydroxy-acetamide] | 0.2 | 
CCc1cc(-c2noc(-c3cc(C)nc(NC(C)C)c3)n2)cc(C)c1OC[C@H](O)CO [Example 198, (R)-3-{2-ethyl-4-[5-(2-isopropylamino-6-methyl-pyridin-4-yl)-[1,2,4]oxadiazol-3-yl]-6-methyl-phenoxy}-propane-1,2-diol] | 2.4 | 
CCc1cc(-c2noc(-c3cc(C)nc(NC(C)C)c3)n2)cc(C)c1OC[C@@H](O)CNC(=O)CO [Example 203, N—((S)-3-{2-ethyl-4-[5-(2-isopropylamino-6-methyl-pyridin-4-yl)-[1,2,4]oxadiazol-3-yl]-6-methyl-phenoxy}-2-hydroxy-propyl)-2-hydroxy-acetamide] | 0.5 | 
CCc1cc(-c2noc(-c3cc(C)nc(N4CCOCC4)c3)n2)cc(C)c1OC[C@H](O)CN [Example 208] |  | EC50 [1, 3]: > 10000 nM
CCc1cc(-c2noc(-c3cc(C)nc(N4CCOCC4)c3)n2)cc(C)c1OC[C@@H](O)CN [Example 209] |  | EC50 [1, 3]: > 10000 nM
CCc1cc(-c2noc(-c3cc(C)nc(N(C)CC(C)C)c3)n2)cc(C)c1OC[C@@H](O)CNC(=O)CO [Example 232, N—[(S)-3-(2-ethyl-4-{5-[2-(isobutyl-methyl-amino)-6-methyl-pyridin-4-yl]-[1,2,4]oxadiazol-3-yl}-6-methyl-phenoxy)-2-hydroxy-propyl]-2-hydroxy-acetamide] | 4.1 | 
